Measurements published in US20230392180A1, “MICROSCOPIC IMAGING AND ANALYSES OF EPIGENETIC LANDSCAPE” (Sanford Burnham Prebys Medical Discovery Institute, priority 2020, published 2023).
“Also recorded” adds a separate entry of the source.

Columns and labels:
[1] = female, human
[2] = system: GBM2 cells; assay: RNAseq and transcriptomic analysis; assay type: cell-based, human
Protocol: RNAseq and transcriptomic analysis: Total RNA was isolated from GBM2 cells using the RNeasy Kit (Qiagen), 0.5 ug total RNA was used for isolation of mRNAs and library preparation. Library preparation and sequencing was conducted by the SBP genomics core (Sanford-Burnham NCI Cancer Center Support Grant P30 CA030199). PolyA RNA was isolated using the NEBNext® Poly(A) mRNA Magnetic Isolation Module and barcoded libraries were made using the NEBNext® Ultra II™ Directional RNA Library Prep Kit for Illumina® (NEB, Ipswich MA). Libraries were pooled and single end sequenced (1X75) on the Illumina NextSeq 500 using the High output V2 kit (Illumina). Read data was processed in BaseSpace. Reads were aligned to Homo sapiens genome (hg19) using STAR aligner with default settings. Differential transcript expression was determined using the Cufflinks Cuffdiff package. Go term enrichment analysis was conducted using PANTHER v11 using all genes identified as differentially expressed following either serum or Bmp4 treatment. For heat maps showing fold change in expression the FPKM values in each population were divided by the average FPKM values of untreated GBM2. To highlight differences in expression levels between serum and Bmp4 treated GBM2 cells the FPKM values in each sample were z-scored. Zscore=(FPKMObservation−FPKMAverage)/FPKMSD (FPKMObservation−FPKM value obtain through sequencing; FPKMAverage−average of all FPKM values in all samples for a certain gene; FPKMSD−standard deviation of FPKM values for a certain gene). Heat maps were generated using Microsoft Excel conditional formatting function.
Correlation of transcriptomic and image-based profiles: Euclidean distance between untreated, serum or Bmp4 treated GBM2 cells (triplicates for each) was calculated using either transcriptomic data (FPKM) or texture features. Pearson's correlation coefficient (R) was transformed to a t-value using the formula (t=R×SQRT(N−2)/SQRT(1−R2) where N is the number of samples, and R is Pearson correlation coefficient, and the p-value was calculated using Excel tdist(t) function. For compound prioritization, the Euclidean distance between compound treated and serum or Bmp4 treated GBM2 cells was calculated based on either transcriptomic data (FPKM) or image features. The average distance to both serum and Bmp4 treatments was normalized to the average distance of untreated cells to serum and Bmp4.
RNAseq and transcriptomic analysis: Total RNA was isolated from GBM2 cells using the RNeasy Kit (Qiagen), 0.25 μg total RNA was used to isolate mRNAs and for library preparation. Library preparation and sequencing were conducted by the SBP genomics core (Sanford-Burnham NCI Cancer Center Support Grant P30 CA030199). PolyA RNA was isolated using the NEBNext® Poly(A) mRNA Magnetic Isolation Module, and barcoded libraries were made using the NEBNext® Ultra II™ Directional RNA Library Prep Kit for Illumina® (NEB, Ipswich MA). Libraries were pooled and single-end sequenced (1×75) on the Illumina NextSeq 500 using the High-Output V2 kit (Illumina). Read data, processed in BaseSpace, were aligned to Homo sapiens genome (hg19) using STAR aligner with default settings. Differential transcript expression was determined using the Cufflinks Cuffdiff package. For heat maps showing fold change in expression, FPKM values in each HDACi-treated population were divided by the average FPKM values of DMSO-treated GBM2 and values shown as log 2 of the ratio. Go enrichment analysis was conducted using PANTHER v11 using all genes identified as differentially expressed following either serum or Bmp4 treatment. To highlight differences in expression levels between serum- and Bmp4-treated GBM2 cells, FPKM values in each sample were z-scored. Zscore=(FPKMObservation−FPKMAverage)/FPKMSD (FPKMObservation−FPKM value obtain through sequencing; FPKMAverage−average of all FPKM values in all samples for a certain gene; FPKMSD−standard deviation of FPKM values for a certain gene). […]

[3] = system: TPCs; assay: Growth rate of treated glioblastoma cells; details: 3 days of serum or Bmp4 treatment
[4] = system: GBM cell lines; assay: Immunostaining of core transcription factors and GFAP after serum or Bmp4 treatment; assay type: cell-based, human
Protocol: Differentiation treatment: For TPC differentiation treatments cells were cultured in DMEM:F12 Neurobasal media (1:1), 1% B27 supplement, 10% BIT 9500, 1 mM glutamine supplemented with either Bmp4 (100 ng/ml; R&D Systems) or FBS (10%).
Cell staining: Cells were rinsed with PBS and fixed in 4% paraformaldehyde in PBS for 10 min at room temperature. After blocking with PBSAT (2% BSA and 0.5% Triton X-100 in PBS) for 1 h at room temperature, the cells were incubated overnight at 4° C. with primary antibodies diluted in PBSAT. The primary antibodies are listed in Table 2, and the appropriate fluorochrome-conjugated secondary antibodies were used at 1:500 dilution. Nuclear co-staining was performed by incubating cells with Hoechst-33342 nuclear dye.
Microscopy and image analysis: Unless stated otherwise, for MIEL analysis cells were imaged on an Opera QEHS high-content screening system (PerkinElmer) using ×40 water immersion objectives. Images collected on the Opera were analyzed using Acapella 2.6 (PerkinElmer). […] Features of nuclear morphology, fluorescence intensity inter-channel co-localization, and texture features (Image moments, Haralick, Threshold Adjacency Statistics) were calculated using custom algorithms (scripts available from www.andrewslab.ca). […] Between 3 and 8 fields per well were acquired and analyzed using Acapella 2.6 (PerkinElmer). […]

[5] = system: H3K27ac and H3K27me3; assay: H3K27ac and H3K27me3 immunofluorescence intensity; assay type: cell-based, human; details: GBM2, low concentrations (<30 μM), compared with Pan HDAC inhibitors TSA, SAHA
[6] = system: GBM2 cells; assay: Epigenetic Drug Screening (MIEL); assay type: cell-based, human
Text: Data processing: The image features-based profile for each cell population (e.g., cell types, treatments, technical repetition) was represented using a vector (center of distribution vectors) in which every element is the average value of all cells in that population for a particular feature. The vector's length is given by the number of features chosen (262 per histone modification). Raw feature values were normalized by z-scoring to the average and standard deviation of all populations being compared. All cells in each population were used to calculate center vectors, and each population contained at least 50 cells. Activity level for each drug was determined by calculating the distance from DMSO. […] Euclidean distance of each compound and each DMSO replicate to the DMSO center vector was calculated. Distances were z-scored to the average distance and standard deviation of DMSO replicates from the DMSO center vector. Transcriptomic-based profile for each cell population was represented using a vector in which every element is the z-scored FPKM value for a single gene in that population. […] Raw feature values for all center vectors of all populations in each plate were normalized to the plate-wise DMSO vector; normalized feature values were z-scored as above. […] Activity levels were calculated as above. […] Cell counts were z-scored against the average and standard deviation of all DMSO replicates. […]

[7] = system: C57BL/6J male mice; assay: miBioAge (MIEL-CLOCK) after doxorubicin injection; assay type: in vivo
Protocol: This can be shown by employing classical treatments such as doxorubicin (DOX), paclitaxel (PTX), or temozolomide (TMZ), known to promote hallmarks of aging to compare miBioAge readouts in blood (PBMC and CD3+ cells) and liver hepatocytes to chronologically matched untreated controls. Blood was collected on day 0 (retro-orbital) from 3-month old C57BL/6J male mice and 22-month old C57BL/6J male mice. On day 1, doxorubicin was injected into the experimental mice. All controls received PBS injection. Blood was collected on day 20 (retro-orbital) from all mice and liver hepatocytes on day 21. Cells were analyzed 21 days after treatment to avoid the effects of acute stress response and favor the aging-related phenomena.

[8] = Variance of chromatin and epigenetic landscape (VITA) score; assay type: in vivo, mice; details: after treatment
Text: In some instances, in addition to computing the values of individual cell nucelli in multidimensional space of statistical texture features, coefficient of variance (CV) is used, defined as the ratio of the standard deviation a sigma to the mean p, namely. CV for each field of view, well, technical replicate, and biological replicate such organs tissues and cells from individual mice could be computed based on individual nuclei and the results are stable using 200-2000 nuclei per experimental replica (e.g., individual wells). […] This means that quantitatively CV can be informative values serving as a quantitative measurement of individual organ, tissue, or cell type from individual animals.

In the case of `CC(=O)S[C@@H]1CC2=CC(=O)CC[C@]2(C)[C@H]2CC[C@@]3(C)[C@@H](CC[C@@]34CCC(=O)O4)[C@H]12` [spironolactone], the “estimated concentrations reached following repeated administration” value [1] is reported as about 10 µM.
With “Bmp4: Bmp4 (100 ng/ml; R&D Systems), positive control inducing TPC differentiation” the “expression of most genes of the transcriptomic stemness signature” value ([2]; GBM2, 3 days treatment, vs untreated cells) was “reduced”, the “growth rate of TPCs” value [3] was “reduced; also recorded: attenuate” and the GFAP expression [4] was “increased”. For the same molecule, the “expression of transcription factors Sox2, Sall2, Brn2 and Olig2” value ([4]; 3 days treatment, cell line dependent) was “down regulated; also recorded: downregulated”.
For `CCCC(CCC)C(=O)O` [valproic acid], the “transcriptomic changes (genes altered vs DMSO)” value ([2]; GBM2, 24 hours, valproic acid 15 μM) was “not reflected”, the “H3K27ac and H3K27me3 immunofluorescence intensity” value [5] was “no increase in histone acetylation or decrease in histone methylation” and the “functional classification by discriminant analysis (MIEL)” value ([6]; 10 μM, 24 hours, 85 compounds) was “active but were misclassified”. The “epigenetic changes detected by MIEL” value ([6]; 24-hour treatment, low concentrations (<30 μM)) was “detectable epigenetic changes”.
In the case of `COc1cccc2c1C(=O)c1c(O)c3c(c(O)c1C2=O)C[C@@](O)(C(=O)CO)C[C@@H]3O[C@H]1C[C@H](N)[C@H](O)[C@H](C)O1` [DOX, doxorubicin], the miBioAge distance ([7]; 3-month, compared to 3-month control) is reported as “increases”, the “miBioAge signatures in CD3+ cells” value ([7]; blood collected on day 20) is reported as “trend shift” and the “miBioAge signatures in PBMC” value ([7]; blood collected on day 20) is reported as “trend shift”. The “miBioAge signatures in liver hepatocytes” value ([7]; cells analyzed 21 days after treatment) was “towards the old age” and the VITA score [8] was “trend for the increase; also recorded: increases”.
With `Oc1ccc(O)cc1` [Hydroquinone] the “estimated concentrations reached following repeated administration” value [1] was about 10 µM.
